Experimental data as given in US20190359547A1, “METHOD OF RETARDING AN ETHYLENE RESPONSE” (CURTIN UNIVERSITY OF TECHNOLOGY, priority 2016, published 2019).

Assays:
WX17 wax flower = assay: flower/bud abscission in WX17 wax flower; format: in vivo, Wax flower (Chamelaucium Desf.); conditions: BC 100 nLL^-1 fumigation followed by ethylene exposure (10 μLL^-1)
Experimental: (§1) To evaluate the effects of BC and NC on flower abscission, flowering stems of Wax flower (Chamelaucium Desf.) (WX17, WX73 and WX107) were collected from mature bushes grown at Department of Agriculture and Food Western Australia (DAFWA), Perth (31° 58′ 55″ S/115° 51′ 47″ E). Collected stems were immediately placed upright in buckets with water and recut at 20-25 cm in length (from the cut end to the most extreme opened-flowers). The flower stalks were treated similarly as the fruits with BC (0-100 nLL^−1) or NC (0-100 nLL^−1) and ethylene. The experiments were laid out by following CRD design, having five replications for each treatment and five stalks in each replication. During the treatment period, the flower stalks were placed in small plastic bottles with distilled water. A cone made of nylon mesh was placed at the base of the stalks to check the number of abscised flowers. […]
(§2) The experimental data were analysed following one-way analysis of variance (ANOVA) by using Genstat 13 (release 13.1; Lawes Agricultural Trust, Rothamsted Experimental Station, Harpenden, UK). The effects of various treatments and their interactions were assessed and least significant differences (Fisher's LSD) were calculated by F test at 5% level of significance.

[1] = tested on: 'Tegan Blue' Japanese plum fruit; assay: climacteric respiration (CO2 production) in 'Tegan Blue' plum fruit; format: in vivo; conditions: ethylene only 0.72 mmol CO2 kg^-1 h^-1
WX73 wax flower = assay: flower/bud abscission in WX73 wax flower; format: in vivo, Wax flower (Chamelaucium Desf.)
Experimental: as §1, §2

[2] = tested on: 'Arctic Pride' nectarine fruit; assay: climacteric respiration (CO2 production) in 'Arctic Pride' nectarine fruit; format: in vivo; conditions: ethylene only 0.31 mmol CO2 kg^-1 h^-1
[3] = stability at room temperature; format: physicochemical
solubility in water = format: physicochemical
[4] = tested on: 'Arctic Pride' nectarine fruit; assay: climacteric ethylene level in 'Arctic Pride' nectarine fruit after fumigation; format: in vivo; conditions: BC 50 nLL^-1 + ethylene, ethylene only 0.414 μmol kg^-1 h^-1
[5] = tested on: 'Tegan Blue' Japanese plum fruit; assay: climacteric ethylene level in 'Tegan Blue' plum fruit after fumigation; format: in vivo; conditions: for level of climacteric ethylene, suppressed, in comparison to the solely ethylene treated fruit: 'Tegan Blue' plum, ethylene only 4.73 μmol kg^-1 h^-1

c1ccc2c(c1)C2 [BC, benzocyclopropene]
rate of flower/bud abscission (WX17 wax flower): 6.05% | climacteric respiration, suppressed, than the solely ethylene treated fruit ([1]; BC 100 nLL^-1 + ethylene): 0.83 fold | rate of flower/bud abscission (WX73 wax flower; 50 nL L^-1 BC followed by ethylene treatment): 22.43% | rate of flower/bud abscission (WX73 wax flower; 100 nL L^-1 BC followed by ethylene treatment): 28.40% | suppression of respiration climacteric in comparison to the solely ethylene treated fruit ([2]; BC 50 nLL^-1 + ethylene): 0.77 fold | suppression of respiration climacteric in comparison to the solely ethylene treated fruit ([2]; BC 50 nLL^-1 without ethylene): 0.71 fold | stability [3]: stable at room temperature for several months | solubility in water (solubility in water): only partially soluble in water | levels of ethylene, suppressed, than the solely ethylene treated fruit [4]: 0.63 fold | level of climacteric ethylene, suppressed, in comparison to the solely ethylene treated fruit ([5]; 100 nLL^-1 BC fumigation 18 hr + ethylene (10 μL L^-1, 24 hr)): 0.80 fold | effect on climacteric ethylene and respiration compared with 1-MCP (1000 nL L^-1) ([5]; BC 100 nL L^-1 versus 1-MCP 1000 nL L^-1, 'Tegan Blue' and 'Fortune' plum, 'Arctic Pride' nectarine): non-significant differences

CC1=CC1 [1-MCP, 1-Methylcyclopropene, reference compound]
climacteric respiration, suppressed, than the solely ethylene treated fruit ([1]; 1-MCP 1000 μLL^-1 + ethylene): 0.77 fold | level of climacteric ethylene, suppressed, in comparison to the solely ethylene treated fruit ([5]; 1000 nLL^-1 1-MCP fumigation 18 hr + ethylene (10 μL L^-1, 24 hr)): 0.70 fold
